Changes are numbered by the printed parent chain. pIC50, pKd: −log10 of the molar value. Like-named read-outs stand apart in the source and are kept apart here.
Experiments:
[1] = target: T1, mutant MGL (Homo sapiens, UniProt Q99685, L169S/L176S); assay: MGL ThermoFluor Assay - Mutant; assay type: binding
T1 construct: mut-MGLL 11-313 L179S L186S
T1 sequence (Q99685 1-303 L169S/L176S): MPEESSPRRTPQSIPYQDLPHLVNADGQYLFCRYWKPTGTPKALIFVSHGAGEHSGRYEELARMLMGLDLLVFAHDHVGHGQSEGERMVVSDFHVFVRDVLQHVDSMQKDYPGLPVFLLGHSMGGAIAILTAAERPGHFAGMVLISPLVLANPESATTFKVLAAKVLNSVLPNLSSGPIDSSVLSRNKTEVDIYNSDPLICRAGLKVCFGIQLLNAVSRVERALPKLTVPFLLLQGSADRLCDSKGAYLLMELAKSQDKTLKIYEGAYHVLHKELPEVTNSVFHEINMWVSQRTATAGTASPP
Protocol: The ThermoFluor (TF) assay is a 384-well plate-based binding assay that measures thermal stability of proteins^1,2. The experiments were carried out using instruments available from Johnson & Johnson Pharmaceutical Research & Development, LLC. TF dye used in all experiments was 1,8-ANS (Invitrogen: A-47). Final TF assay conditions used for MGL studies were 0.07 mg/ml of mutant MGL, 100 μM ANS, 200 mM NaCl, 0.001% Tween-20 in 50 mM PIPES (pH=7.0).
Screening compound plates contained 100% DMSO compound solutions at a single concentration. For follow-up concentration-response studies, compounds were arranged in a pre-dispensed plate (Greiner Bio-one: 781280), wherein compounds were serially diluted in 100% DMSO across 11 columns within a series. Columns 12 and 24 were used as DMSO reference and contained no compound. For both single and multiple compound concentration-repsonse experiments, the compound aliquots (46 nL) were robotically predispensed directly into 384-well black assay plates (Abgene: TF-0384/k) using the Hummingbird liquid handler. Following compound dispension, protein and dye solutions were added to achieve the final assay volume of 3 μL. The assay solutions were overlayed with 1 μL of silicone oil (Fluka, type DC 200: 85411) to prevent evaporation.
Bar-coded assay plates were robotically loaded onto a thermostatically controlled PCR-type thermal block and then heated from 40 to 90° C. degrees at a ramp-rate of 1° C./min for all experiments. Fluorescence was measured by continuous illumination with UV light (Hamamatsu LC6), supplied via fiber optics and filtered through a band-pass filter (380-400 nm; >6 OD cutoff). Fluorescence emission of the entire 384-well plate was detected by measuring light intensity using a CCD camera (Sensys, Roper Scientific) filtered to detect 500±25 nm, resulting in simultaneous and independent readings of all 384 wells. A single image with 20-sec exposure time was collected at each temperature, and the sum of the pixel intensity in a given area of the assay plate was recorded vs temperature and fit to standard equations to yield the Tm^1. • 1. Pantoliano, M. W., Petrella, E. C., Kwasnoski, J. D., Lobanov, V. S., Myslik, J., Graf, E., Carver, T., Asel, E., Springer, B. A., Lane, P., and Salemme, F. R. (2001) J Biomol Screen 6, 429-40. • 2. Matulis, D., Kranz, J. K., Salemme, F. R., and Todd, M. J. (2005) Biochemistry 44, 5258-66.
The Kd values for compounds of Formula (Ia) and (Ib) were determined from a fit of the equation to the concentration-response plot of the fractional activity as a function of Tm. For some experiments, quantitative NMR spectroscopy (qNMR) was used to measure concentration of the initial 100% DMSO compound solutions and, using the same fitting method, qKd values were determined.

[2] = target: T2, purified mutant MGL (mut-MGLL 11-313 L179S L186S) (Homo sapiens, UniProt Q99685, L169S/L176S); assay: MGL Enzyme Activity Assay (mutant MGL, 4MU-B substrate); assay type: biochemical; conditions: mutant MGL 5 nM, 4MU-B 10 μM, 37° C.; read-out: MGL mutant inh IC50
T2 construct: mut-MGLL 11-313 L179S L186S
T2 sequence (Q99685 1-303 L169S/L176S): T1 sequence (Q99685 1-303 L169S/L176S)
Protocol: (§1) All rate-based assays were performed in black 384-well polypropylene PCR microplates (Abgene) in a total volume of 30 μL. Substrate 4-methylumbelliferyl butyrate (4MU-B; Sigma) and either purified mutant MGL (mut-MGLL 11-313 L179S L186S) or purified wild type MGL (wt-MGLL 6H-11-313) were diluted separately into 20 mM PIPES buffer (pH=7.0), containing 150 mM NaCl and 0.001% Tween 20. Compounds of Formula (Ia) and (Ib) were pre-dispensed (50 nL) into the assay plate using a Cartesian Hummingbird prior to adding 4MU-B (25 μL of 1.2× solution to a final concentration of 10 μM) followed by enzyme (5 μL of a 6× solution to a final concentration of 5 nM) to initiate the reaction. Final compound concentrations ranged from 17 to 0.0003 μM. The fluorescence change due to 4MU-B cleavage was monitored with excitation and emission wavelengths of 335 and 440 nm, respectively, and a bandwidth of 10 nm (Safire^2, Tecan) at 37° C. for 5 min.
(§2) The IC50 values for compounds of Formula (Ia) or (Ib) were determined using Excel from a fit of the equation to the concentration-response plot of the fractional activity as a function of inhibitor concentration.

[3] = target: T3, MGL (Rattus norvegicus, UniProt Q8R431); assay: 2-AG Accumulation Assay in rat brain homogenate; assay type: biochemical; conditions: compound @1 μM, 2-AG accumulation as percent of vehicle
T3 construct: one g rat brain was homogenized; from tissue; host or cells: rat brain homogenate
T3 sequence (Q8R431 1-303): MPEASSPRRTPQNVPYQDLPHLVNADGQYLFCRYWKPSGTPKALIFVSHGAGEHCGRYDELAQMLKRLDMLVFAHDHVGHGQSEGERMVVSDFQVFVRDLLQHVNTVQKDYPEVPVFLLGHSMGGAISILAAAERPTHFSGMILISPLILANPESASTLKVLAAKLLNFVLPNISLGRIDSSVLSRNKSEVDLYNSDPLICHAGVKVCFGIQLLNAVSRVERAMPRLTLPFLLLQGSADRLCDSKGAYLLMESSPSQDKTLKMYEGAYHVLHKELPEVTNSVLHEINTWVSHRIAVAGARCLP
Protocol: After a 15-min incubation time at 37° C., CaCl2 (final concentration=10 mM) was added and then incubated for 15 min at 37° C. in a total volume of 5 mL. The reactions were stopped with 6 mL organic solvent extraction solution of 2:1 chloroform/methanol. Accumulated 2-AG in the organic phase was measured by a HPLC/MS method, according to the following equation: percent vehicle=(2-AG accumulation in the presence of compound/2-AG accumulation in vehicle)×100.

[4] = target: T4, purified wild type MGL (wt-MGLL 6H-11-313) (Homo sapiens, UniProt Q99685); assay: MGL Enzyme Activity Assay (wild type MGL, 4MU-B substrate); assay type: biochemical; conditions: wild type MGL 5 nM, 4MU-B 10 μM, 37° C.; read-out: MGL wild type inh IC50
T4 construct: wt-MGLL 6H-11-313; 6H (hexahistidine) (N)
T4 sequence (Q99685 1-303): T1 sequence (Q99685 1-303 L169S/L176S) with S169L, S176L
Protocol: as §1, §2

[5] = mutant MGL 0.07 mg/ml, 1,8-ANS dye, read-out: MGL mutant ThermoFluor Kd
[6] = mutant MGL, compound concentration measured by qNMR, read-out: MGL mutant ThermoFluor qKd (using qNMR conc.)

SMILES	pKd [1, 5]	pIC50 [2]	Rat Brain 2AG % VehCntrl (%) @1 μM [3] [%]	pIC50 [4]	pKd [1, 6]
O=C(c1ccc(Cc2ccccc2)cc1)N1CC(N2CCN(c3ccccc3)C(=O)C2)C1 [Cpd 1, 4-(1-(4-benzylbenzoyl)azetidin-3-yl)-1-phenylpiperazin-2-one]	5.48	5.28	–	–	–
O=C(c1ccc(-c2ccccc2)cc1)N1CC(N2CCN(c3ccccc3)C(=O)C2)C1 [Cpd 2, 4-(1-([1,1′-biphenyl]-4-carbonyl)azetidin-3-yl)-1-phenylpiperazin-2-one]	4.71	5.37	–	–	–
O=C(c1ccc2c(ccn2-c2ccc(C(F)(F)F)cc2)c1)N1CC(N2CCN(c3ncccn3)C(=O)C2)C1 [Cpd 3, 1-Pyrimidin-2-yl-4-[1-({1-[4-(trifluoromethyl)phenyl]-1H-indol-5-yl}carbonyl)azetidin-3-yl]piperazin-2-one]	7.40	–	418	8.22	–
O=C(c1ccc2c(ccn2-c2ccc(F)cc2)c1)N1CC(N2CCN(c3nccs3)C(=O)C2)C1 [Cpd 5, 4-(1-{[1-(4-Fluorophenyl)-1H-indol-5-yl]carbonyl}azetidin-3-yl)-1-(1,3-thiazol-2-yl)piperazin-2-one]	–	–	316	8.00	6.77
O=C(c1ccc2c(ccn2-c2ccc(F)cc2)c1)N1CC(N2CCN(c3cscn3)C(=O)C2)C1 [Cpd 6, 4-(1-{[1-(4-Fluorophenyl)-1H-indol-5-yl]carbonyl}azetidin-3-yl)-1-(1,3-thiazol-4-yl)piperazin-2-one]	–	–	302	7.54	6.21
O=C(c1sc2cc(C(F)(F)F)ccc2c1Cl)N1CC(N2CCN(c3cscn3)C(=O)C2)C1 [Cpd 7, 4-(1-{[3-Chloro-6-(trifluoromethyl)-1-benzothiophen-2-yl]carbonyl}azetidin-3-yl)-1-(1,3-thiazol-4-yl)piperazin-2-one]	–	–	155	7.17	6.73
O=C(c1ccc2c(ccn2-c2ccc(C(F)(F)F)cc2)c1)N1CC(N2CCN(c3ncccn3)CC2=O)C1 [Cpd 24, 4-Pyrimidin-2-yl-1-[1-({1-[4-(trifluoromethyl)phenyl]-1H-indol-5-yl}carbonyl)azetidin-3-yl]piperazin-2-one]	6.36	–	155	7.42	–
